The source of these data is US12263155B2, “Combinations of monoamine oxidase inhibitors and serotonin receptor agonists and their therapeutic use” (Remedi, Inc., priority 2022, dated 2025).

Where two headings read alike, the source gives them in different places.

The target in data set [1] is T1, MAO-A from human brain striatum (Homo sapiens, UniProt P21397).
T1 construct: homogenates of a post-mortem sample of the human brain striatum, served as the source of MAO-A enzymatic activity; from tissue; host or cells: human brain striatum, post-mortem (P2 mitochondrial-enriched fraction)
T1 sequence (P21397 1-527): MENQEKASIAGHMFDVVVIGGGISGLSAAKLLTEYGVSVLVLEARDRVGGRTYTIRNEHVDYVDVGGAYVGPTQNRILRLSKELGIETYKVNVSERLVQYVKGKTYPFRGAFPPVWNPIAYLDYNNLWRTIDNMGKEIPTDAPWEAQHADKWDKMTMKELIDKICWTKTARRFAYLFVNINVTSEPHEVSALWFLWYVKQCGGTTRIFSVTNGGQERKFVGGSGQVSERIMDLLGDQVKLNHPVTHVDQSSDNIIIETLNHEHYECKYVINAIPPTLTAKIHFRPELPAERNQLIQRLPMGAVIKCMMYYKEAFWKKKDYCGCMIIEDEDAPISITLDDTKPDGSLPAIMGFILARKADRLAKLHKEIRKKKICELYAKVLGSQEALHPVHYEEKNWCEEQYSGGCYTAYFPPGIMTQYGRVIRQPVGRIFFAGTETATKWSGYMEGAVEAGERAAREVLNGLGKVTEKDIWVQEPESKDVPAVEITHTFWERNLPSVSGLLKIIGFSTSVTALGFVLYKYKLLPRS
Put plainly: Inhibitory kinetics of human brain striatum MAO-A. Format: biochemical. Particulars: for Vmax: [14C]-5-HT substrate. Here is the method:
Methods: The soluble extract of the mitochondrial enriched fraction (P2 pellet), which was prepared from homogenates of a post-mortem sample of the human brain striatum, served as the source of MAO-A enzymatic activity for this assay. After preparation, the P2 fraction was stored frozen until it was thawed for use on the day of assay. […] The MAO-A assay specificity was enhanced by inclusion of 0.1 μM deprenyl to prevent substrate oxidation by MAO-B. The CX157 competition for MAO-A activity was measured using either 1.0 nM or 5.0 nM CX157 against the 2 log unit concentration range of [^14C]-5-HT. The reference standard, RO 41-1049, was tested at 10 μM. Deprenyl (0.1 μM) was included in all MAO-A assays to prevent any potential for MAO-B mediated oxidation of the [^14C]-5-HT substrate. […] The MAO-A assays were performed using CX157 at concentrations of 0 nM (as a positive control), 1 nM and 5 nM. The Km and Vmax values were calculated from Lineweaver-Burke plots.

Another data set has as its target T2, rat liver MAO-B (Rattus norvegicus, UniProt P19643).
T2 construct: from tissue; host or cells: rat liver
T2 sequence (P19643 1-520): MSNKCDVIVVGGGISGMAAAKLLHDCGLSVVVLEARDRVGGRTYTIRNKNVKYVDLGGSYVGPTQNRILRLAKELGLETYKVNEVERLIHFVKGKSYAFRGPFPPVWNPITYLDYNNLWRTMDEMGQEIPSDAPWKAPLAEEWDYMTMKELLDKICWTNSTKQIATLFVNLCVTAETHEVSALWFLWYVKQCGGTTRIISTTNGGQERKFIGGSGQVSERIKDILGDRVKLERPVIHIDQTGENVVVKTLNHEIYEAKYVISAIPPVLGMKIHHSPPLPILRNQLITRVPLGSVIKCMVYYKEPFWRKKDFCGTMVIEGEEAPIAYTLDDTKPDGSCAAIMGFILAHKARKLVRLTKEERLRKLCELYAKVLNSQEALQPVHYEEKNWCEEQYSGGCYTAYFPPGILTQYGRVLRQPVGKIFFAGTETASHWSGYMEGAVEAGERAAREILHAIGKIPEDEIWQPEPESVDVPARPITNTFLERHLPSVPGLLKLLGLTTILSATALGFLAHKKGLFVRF
The data set can be described thus: In vitro inhibition of rat liver MAO-B. The data set is classed as biochemical. Particulars: 10 μM [14C]-PEA. As for the experimental part: Methods: The soluble extract of the mitochondrial enriched fraction (P2 pellet), which was prepared from brain homogenates of male Sprague-Dawley rats, served as the source of MAO-A enzymatic activity. The P2 fraction was prepared and was stored frozen until being thawed for use on the day of assay. Final concentrations of 50 μM [^14C]-serotonin (5-HT) and 10 μM [^14C]-phenylethylamine (PEA) were employed as specific substrates for MAO-A and MAO-B, respectively. Test compound inhibition was based on competition for oxidation of these radio-labeled substrates. MAO-A assay specificity was enhanced by inclusion of 0.1 μM deprenyl to prevent substrate oxidation by MAO-B. Likewise, MAO-B assays included 0.1 μM clorgyline to block MAO-A activity. […] Inhibition of enzymatic activities was expressed as IC50 and as the Ki, which was calculated using the Cheng-Prusoff equation.

Data set [2] can be described thus: Phase I modified release tablets BID pharmacokinetics. Format: in vivo, human. The note with it: for Cmax / AUC / concentration at 7 day: human, plasma, oral, 125 mg. As for the experimental part: Methods: A total of 20 Subjects (16 on CX157 and 4 on placebo) were dosed with CX157 Modified Release Tablets, 125 mg BID (total daily dose of 250 mg) or placebo in Period 1 for 7 days. […] Subjects who were randomized to CX157 125 mg BID in Period 1 received CX157 175 mg BID in Period 2, after a washout of 7 days. Subjects randomized to placebo in Period 1 received placebo in Period 2, after a washout of 7 days. Blood samples for PK analysis were collected during both periods of the study.
Each oval, biconvex CX157 Film Coated Tablet, 125 mg has a white opaque film coating (Advantia™ Prime) and is stored long-term at controlled room temperature conditions [25° C. (77° F.); excursions 15-30° C. (59-86° F.)].
Each CX157 Modified Release Tablet, 175 mg is stored long-term at controlled room temperature conditions [25° C. (77° F.), excursions 15-30° C. (59-86° F.)]; the tablets are a modified caplet shape, pale pink in color, and plain on both sides.

As usually defined, the Ki is the equilibrium dissociation constant of an inhibitor or competing ligand from its target. A lower Ki goes with higher affinity. What is called Cmax is the highest concentration seen after dosing. Regarding `O=S1(=O)c2ccc(F)cc2Oc2cc(OCC(F)(F)F)ccc21` [CX157, 3-fluoro-7(2,2,2-trifluorethoxy)phenoxathiine-10,10-dioxide], the “increase of Km of the enzyme for [14C]-5-HT” value in data set [1] (5.0 nM CX157) came to 34.6%. The Vmax came out at 50777 in data set [1] (1 nM CX157) and 59161 in data set [1] (5 nM CX157). In addition, the “mode of MAO-A inhibition” value in data set [1] (human brain striatum) was “competitive inhibitor”. The compound further returned an inhibitory constant (Ki) in data set [1] (human brain striatum homogenate, from plot of Km values) of 10 nM. Besides, the “inhibition of rat liver MAO-B” value against rat liver MAO-B is recorded as “did not inhibit”. The “fluctuation in CX157 concentrations during each 12-h dosing interval at steady state” value in data set [2] (125 mg BID, Day 7) amounted to 4.6 fold. Also, the “accumulation, Day 7 versus Day 1 exposures” value in data set [2] (BID dosing with 125 mg MR tablets) was determined as 2.6 fold. Further, the Cmax stood at 134 ± 103 ng/mL in data set [2] (125 mg BID, Day 1, read-out: mean Cmax) and 231 ± 114 ng/mL in data set [2] (MR tablets 125 mg BID, Day 7, mean, read-out: Cmax). For the same compound, the AUC in data set [2] (12-hour AUC, 125 mg BID, Day 1) was found to be 702 ± 500 ng·h/mL; in data set [2] (MR tablets 125 mg BID, Day 7, mean, read-out: AUCSS), 1280 ± 651 ng·h/mL. In addition, the concentration at 7 day in data set [2] (MR tablets 125 mg BID, Day 7, mean, read-out: CSS) is 107 ± 54 ng/mL; in data set [2] (MR tablets 125 mg BID, Day 7, mean, read-out: Cmin), 54.9 ± 32 ng/mL.
